Data reported in US20120213714A1, “Method and compositions as an adjunct for the prevention and treatment of periodontal disease” (priority 2011, published 2012).
≈ marks a conversion by molar mass, not a printed value.

Tested on: Porphyromonas gingivalis
Test: Porphyromonas gingivalis overnight culture, colony count on blood agar vs control
Format: cell-based
Method: After the overnight culture, the medium was diluted 1:10000 times, 5 μl of the diluted culture was applied to blood agar plate and cultured overnight. Calculated the number of colonies on the plates and compared with the control group to obtain the percentage of inhibition.

IC50 (Porphyromonas gingivalis, overnight culture at 37° C, colonies counted vs control, read-out: IC50 / final concentration inhibiting 50% of Porphyromonas gingivalis growth): ~5 µg/mL (≈ 18 µM)
SMILES: CCCCC/C=C\C/C=C\C/C=C\CCCCC(=O)O [omega-6 fatty acids (GLA), γ-linolenic acid]
inhibition of growth of Porphyromonas gingivalis (final concentration of 1 μg/ml): significantly inhibit the growth
